Results from patent US10647680B2, “Urea compound, preparation method therefor and medical use thereof” (Ancureall Pharmaceutical (Shanghai) Co., Ltd., priority 2016, dated 2020).

Legend:
Type in all cases: cell-based
HCC1954 (HER2/ErbB2 amp) = assay: In vitro growth inhibition (GI50), HCC1954; conditions: Homo sapiens
Description: (§1) Tumor cell line is an effective cell model for studying the inhibition of tumor cell growth or proliferation in vitro. In the present invention, a representative tumor cell line was selected to determine the cell growth inhibition activity of the present compound. All cell lines used were from ATCC, DSMZ, and the Cell Bank of the Chinese Academy of Sciences. Cell culture conditions and methods were in accordance with the requirements of each cell line. Cells were subcultured in vitro for no more than 3 passages each time, and as required, single-clone purification and identification of cell lines could be carried out.
(§2) The cell culture media used were RPMI1640 (Gibco), MEM (Gibco), McCOY'S5A (Gibco), and IMDM (Gibco). The complete medium was prepared by supplement with 5˜20% fetal calf serum (Gibco), 1% double-antibiotics (10000 units/mL penicillin and 10000 units/mL), 2 mM glutamine or 1 mM sodium pyruvate, respectively.
Human gastric cancer cell line NCI-N87 (HER2/ErbB2 amp, ATCC), human breast cancer cell line HCC1954 (HER2/ErbB2 amp, ATCC) and ZR-75-30 (HER2/ErbB2 amp, ATCC), human adenocarcinoma cell line AU565 (HER2/ErbB2 amp, ATCC), human lung squamous cell carcinoma cell line NCI-H2170 (HER2/ErbB2 amp, ATCC), human bronchioalveolar adenocarcinoma cell line NCI-H1781 (HER2/ErbB2 Ins G776V,C mutant type, ATCC) were cultured with a 1×RPMI1640 complete medium (10% FBS), respectively. Human lung adenocarcinoma cell line Calu-3 (HER2/ErbB2 amp, ATCC) was cultured with 1×MEM, 10% FBS, 1% double antibody, 1% NEAA (Gibco), 2 mM glutamine and 1 mM sodium pyruvate. The human breast cancer cell line SK-BR-3 (HER2/ErbB2 amp, ATCC) was cultured with a McCOY'S5A complete medium (10% FBS).
(§3) Adherent cells were digested with 0.25% pancreatin-EDTA (Gibco). The suspension cells were collected by centrifugation. The supernatant was discarded and the cell pellet was resuspended and counted. Different cell concentrations (5˜10×10^4 cells/mL) were prepared according to the growth cycle of each cell line and then seeded on a 96-well plate (Corning), 100 μL/well. The cells were incubated overnight at 37° C., 5% CO2. The compounds were added to the cells on the second day with 2 wells in parallel. The final concentration of organic solvent shall not exceed 1%. The cells were continually incubated for 3 to 5 days, and then subjected to MTT assay.
(§4) The compound of the present invention and the control compound were dissolved in DMSO (Sigma) respectively, with the purity of more than 98%. The compound was stored in a concentration of 10 mM at −20° C. and diluted to 2- or 10-fold series prior to use.
(§5) Dojindo CCK8 reagent kit was used as MTT assay. THERMO […] FC meter was used as microplate reader.
(§6) For adherent cells, culture medium was removed and immediately replaced with the fresh prepared medium which contains 10% CCK8 reagent (100 μL/well). For the suspension cells, CCK8 was directly added to 10% of the final concentration. The cells were continually incubated for 1˜4 h. When a dark yellow color could be observed in the solvent control wells, the absorbance value at OD450 nm was measured and the cell growth rate was calculated according to the following formula: Cell Growth Rate (%)=100*(T−T0)/(C−T0) T=optical density of drug treatment cell well—optical density of blank control well; T0=optical density of cell well before drug treatment—optical density of blank control well; C=optical density of cell well of solvent control group—optical density of blank control well. The concentration value of 50% inhibition of cell growth (GI50) was calculated according to the drug concentration and cell growth rate curve. The experiment was independently repeated 1˜3 times, and subject to biological statistical analysis. 4. Experimental Results
Tumor cell growth inhibition test was performed by selecting representative compounds (compounds 4, 11, 12, 16, 27, 68, 71, 77, 79, 89 and 116 of the present invention). […]

NCI-H1581 (FGFR1 amp) = assay: In vitro growth inhibition (GI50), NCI-H1581; conditions: Homo sapiens
Description: as §1, §2
Human non-small cell lung cancer cell NCI-H1581 (FGFR1 amp, ATCC) is an FGFR1 gene amplified/overexpressed tumor cell line. It was cultured in complete medium comprising 1×RPMI1640 with 10% FBS.
as §3, §4, §5, §6
(§7) Tumor cell growth inhibition test was performed by selecting representative compounds (compounds 4, 11, 12, 16, 27, 68, 71, 77, 79, 89 and 116 of the present invention). The initial concentration of the compound was 5,000 nM, then it was serially diluted by 2-fold or 10-fold to 0.01 nM. The GI50 value of each test compound was calculated according to the GI50 assay and calculation method. The experiments were repeated 1 to 3 times, and data were subjected to biological statistical analysis.

[1] = tested on: HCT116 (KRAS G13D mutant type); assay: In vitro growth inhibition (GI50), HCT116; conditions: Homo sapiens, HCT-116
Description: as §1, §2
Human large cell lung cancer cell NCI-H460 (KRAS […] mutant type, ATCC), human non-small cell lung cancer cell line H1299 (NRAS Q61K mutant type, ATCC), human melanoma cell line A375 (BRAF V600E mutant type, Shanghai Cell Bank of Chinese Academy of Sciences), human colon cancer cell line HCT116 (KRAS G13D mutant type, Shanghai Cell Bank, Chinese Academy of Sciences) were cultured in a complete medium of 1×RPMI1640 (10% FBS), respectively. Human non-small cell lung cancer cells A549 (KRAS G12S mutant type, Shanghai Cell Bank, Chinese Academy of Sciences) were cultured in a complete medium of 1× Ham's supplemented with 10% FBS, 1% double antibody, and 2 mM glutamine.
as §3, §4, §5, §6
Tumor cell growth inhibition test was performed by selecting representative compounds (compounds 4, 11, 12, 16, 27, 68, 71, 77, 79, 89 and 116 of the present invention). The initial concentration of the compound was 5,000 nM, then it was serially diluted by 2-fold or 10-fold to 0.01 nM. […]

[2] = tested on: Karpas-299 (expressing NPM-ALK fusion gene); assay: In vitro growth inhibition (GI50), Karpas-299; conditions: Homo sapiens; Karpas-299, NPM-ALK
Description: as §1, §2
Human non-small cell lung cancer cell line NCI-H2228 (expressing EML4-ALK fusion gene, ATCC) and human anaplastic large cell lymphoma cell line Karpas-299 (expressing NPM-ALK fusion gene, ATCC) were cultured in complete medium comprising 1×RPMI1640 (10% FBS), respectively. Neuroblastoma cell line SH-SY5Y (expressing ALK F1174L mutant protein, Shanghai Cell Bank, Chinese Academy of Sciences) was cultured in MEM complete medium (1×MEM, 10% FBS, 1% NEAA, 1 mM sodium pyruvate).
as §3, §4, §5, §6, §7

CC(C)(C)c1cc(NC(=O)Nc2ccc(-n3cnc4cc(OCCO)ccc43)cc2)no1 [Compound 11, 1-(5-tert-butyl-isoxazol-3-yl)-3-{4-[5-(2-hydroxy-ethoxyl)-benzimidazol-1-yl]-phenyl]-urea]
GI50 (HCC1954 (HER2/ErbB2 amp)): > 2500 nM
GI50 (NCI-H1581 (FGFR1 amp)): > 2500 nM
GI50 [1]: > 2500 nM

COc1ccc2c(c1)ncn2-c1ccc(NC(=O)Nc2cc(C(C)(C)C)n[nH]2)cc1 [Compound 71, 1-(5-tert-butyl-2H-pyrazol-3-yl)-3-[4-(5-methoxyl-benzimidazol-1-yl)-phenyl]-urea]
GI50 (HCC1954 (HER2/ErbB2 amp)): > 2500 nM
GI50 [2]: > 2500 nM
GI50 (NCI-H1581 (FGFR1 amp)): > 2500 nM
GI50 [1]: > 2500 nM

CC(C)(C)c1cc(NC(=O)Nc2ccc(-n3cnc4cc(O)ccc43)cc2)no1 [Compound 4, 1-(5-tert-butyl-isoxazol-3-yl)-3-[4-(5-hydroxy-benzimidazol-1-yl)-phenyl]-urea]
GI50 (HCC1954 (HER2/ErbB2 amp)): > 2500 nM
GI50 (NCI-H1581 (FGFR1 amp)): > 2500 nM
GI50 [1]: > 2500 nM

COCCOc1ccc2c(c1)ncn2-c1ccc(NC(=O)Nc2cc(C(C)(C)C)n[nH]2)cc1 [Compound 77, 1-(5-tert-butyl-2H-pyrazol-3-yl)-3-{4-[5-(2-methoxyl-ethoxyl)-benzimidazol-1-yl]-phenyl}-urea]
GI50 (HCC1954 (HER2/ErbB2 amp)): > 2500 nM
GI50 [2]: > 2500 nM
GI50 (NCI-H1581 (FGFR1 amp)): > 2500 nM
GI50 [1]: > 2500 nM

CC(C)(C)c1cc(NC(=O)Nc2ccc(-n3cnc4cc(OCCO)ccc43)cc2)[nH]n1 [Compound 79, 1-(5-tert-butyl-2H-pyrazol-3-yl)-3-{4-[5-(2-hydroxy-ethoxyl)-benzimidazol-1-yl]-phenyl]urea]
GI50 (HCC1954 (HER2/ErbB2 amp)): > 2500 nM
GI50 [2]: > 2500 nM
GI50 (NCI-H1581 (FGFR1 amp)): > 2500 nM
GI50 [1]: > 2500 nM

CC(C)(C)c1cc(N)n(C(=O)Nc2ccc(-n3cnc4ccccc43)cc2)n1 [Compound 116, 5-amino-3-tert-butyl-pyrazol-1-carboxylic acid (4-benzimidazol-1-yl-phenyl)-amide]
GI50 (HCC1954 (HER2/ErbB2 amp)): > 2500 nM
GI50 [2]: > 2500 nM
GI50 (NCI-H1581 (FGFR1 amp)): > 2500 nM
GI50 [1]: > 2500 nM

CC(C)(C)c1cc(NC(=O)Nc2ccc(-n3cnc4ccc(OCCN5CCOCC5)cc43)cc2)no1 [Compound 27, 1-(5-tert-butyl-isoxazol-3-yl)-3-{4-[6-(2morpholin-4-yl-ethoxyl)-benzimidazol-1-yl]-phenyl}-urea]
GI50 (HCC1954 (HER2/ErbB2 amp)): > 2500 nM
GI50 (NCI-H1581 (FGFR1 amp)): > 2500 nM
GI50 [1]: > 2500 nM

CC(C)(C)c1cc(NC(=O)Nc2ccc(-n3cnc4ccccc43)cc2)[nH]n1 [Compound 68, 1-(4-benzimidazol-1-yl-phenyl)-3-(5-tert-butyl-2H-pyrazol-3-yl)-urea]
GI50 (HCC1954 (HER2/ErbB2 amp)): > 2500 nM
GI50 [2]: 1880 nM
GI50 (NCI-H1581 (FGFR1 amp)): > 2500 nM
GI50 [1]: > 2500 nM

CC(C)(C)c1cc(NC(=O)Nc2ccc(-n3cnc4cc(OCCN5CCOCC5)ccc43)cc2)no1 [Compound 16, 1-(5-tert-butyl-isoxazol-3-yl)-3-{4-[5-(2-morpholin-4-yl-ethoxyl)-benzimidazol-1-yl]-phenyl}-urea]
GI50 (HCC1954 (HER2/ErbB2 amp)): > 2500 nM
GI50 [2]: > 2500 nM
GI50 (NCI-H1581 (FGFR1 amp)): > 2500 nM
GI50 [1]: > 2500 nM

CC(C)(C)c1cc(NC(=O)Nc2ccc(-n3cnc4cc(OCCN5CCOCC5)ccc43)cc2)[nH]n1 [Compound 89, 1-(5-tert-butyl-2H-pyrazol-3-yl)-3-{4-[5-(2-morpholin-4-yl-ethoxyl)-benzimidazol-1-yl]-phenyl}-urea]
GI50 (HCC1954 (HER2/ErbB2 amp)): > 2500 nM
GI50 [2]: > 2500 nM
GI50 (NCI-H1581 (FGFR1 amp)): > 2500 nM
GI50 [1]: > 2500 nM
